Like-named read-outs stand apart in the source and are kept apart here.
Assays:
[1] = Budiodarone concentrations in plasma over time after different single doses (FIG. 1); format: in vivo, patients
Method: (§1) It is noted that budiodarone concentrations used in the examples below include both the free acid and the free base versions of budiodarone.
In this example, plasma concentrations of budiodarone were evaluated using different single-dosing amounts of the drug. […] The resulting data was placed on a graph and the data for each concentration provided for both a Cmax for the dose employed as well as a trough value at 6 hours.

[2] = Impact of food on plasma budiodarone concentration, fasting versus fed (FIG. 2); format: in vivo, patients
Method: This example evaluates the impact on plasma budiodarone concentrations based on a fasting or fed patient. In this example, patients were either fasting or fed before the administration of budiodarone. After budiodarone administration, blood was collected from the patients, and the plasma concentration of budiodarone was determined. FIG. 2 illustrates that in the same dosing of budiodarone, the uptake of budiodarone increased as evidenced by the Cmax values.

[3] = tested on: patients with long episodes of either paroxysmal or persistent AFib; assay: Duration of AFib episodes under incremental b.i.d. doses of budiodarone (pacemaker monitoring); format: in vivo; conditions: for Average Episode duration: baseline 4.8 hrs
Method: (§2) In this example, patients were selected with long episodes of either paroxysmal or persistent AFib. Each of the patients was implanted with a pacemaker which monitored their heart rhythm. Patients were then evaluated for disease progression by monitoring their heart rhythm without budiodarone treatment in order to generate a baseline level of the duration of episodes of AFib. The baseline data was collected over two weeks. Patients were then given incremental doses of budiodarone at 200 mg b.i.d; 400 mg b.i.d.; 600 mg b.i.d.; and 800 mg b.i.d. where each dose was maintained for 2 weeks for a total of 4 treatment periods. A two-week washout period was employed after the completion of the 800 mg b.i.d. treatment period, wherein a washout period is the time after the last treatment to avoid misinterpreting observations about study-related treatments that may have been due to prior therapies. Pacemaker data were downloaded on days 8 and 14 of each two-week cycle and averages for each test period are shown. Blood was collected during each cycle and tested for the concentration of budiodarone.

[4] = Trough plasma concentration of budiodarone during b.i.d. dosing cycles and washout; format: in vivo, patients
Method: as §1, §2

[5] = cited from earlier work

plasma concentration maintained for over 6 hours ([1]; each single dose at or above 400 mg): greater than 13 ng/mL
plasma level maintained for at least 6 hours ([1]; high dosing, bolus such as 1,000 mg): above 13 ng/mL
plasma concentration for up to about 6 hours ([1]; high single dose (about 800 mg to 1200 mg), see FIG. 1): over 40 ng/mL
Cmax ([1]; human, plasma, oral, 1000 mg, bolus such as 1,000 mg, read-out: Cmax concentration in plasma): > 300 ng/mL
concentration at 8 h ([1]; human, plasma, oral, 1000 mg, bolus such as 1,000 mg, read-out: plasma concentration in about 8 hours): < 20 ng/mL
Cmax ([1]; human, plasma, oral, each single dose at or above 400 mg, plasma, read-out: Cmax): > 50 ng/mL
Cmax ([1]; human, plasma, oral, high single dose (about 800 mg to 1200 mg), see FIG. 1, read-out: Cmax): ≤ 350 ng/mL
concentration at 6 h ([1]; human, plasma, oral, single dose at 800 mg or 1,000 mg): ~50 ng/mL
concentration at 8 h ([1]; human, plasma, oral, single dose at 800 mg or 1,000 mg, read-out: plasma concentration at 8 hours): ≥ 15 ng/mL
shift in time of Cmax in the fed group versus fasted patients ([2]; fed versus fasted patients): about an hour later
uptake of budiodarone as evidenced by the Cmax values, fed versus fasting ([2]; same dosing of budiodarone, fed versus fasting patients): increased
effective plasma level within 60 min, maintained for up to 6 hours ([2]; single oral dose of 400-1,000 mg, whether or not taken with food): > 50 ng/mL
Trough Pk levels ng/ml in plasma ([4]; 200 mg bid, doses approximately 12 hours apart): 2.4 +/ ng/ml
Trough Pk levels ng/ml in plasma ([4]; 400 mg bid, doses approximately 12 hours apart): 5.2 +/ ng/ml
Trough Pk levels ng/ml in plasma ([4]; 600 mg bid, doses approximately 12 hours apart): 13.1 +/ ng/ml
Trough Pk levels ng/ml in plasma ([4]; 800 mg bid, doses approximately 12 hours apart): 19.8 +/ ng/ml
washout trough concentration as share of the trough concentration at 800 mg b.i.d. ([4]; 2 weeks post 800 mg b.i.d.): about 1.5%
concentration at 12 h ([4]; human, plasma, 800 mg b.i.d., doses approximately 12 hours apart, read-out: Trough Pk levels ng/ml in plasma): 19.8 ng/mL
concentration at 2 weeks ([4]; human, plasma, 800 mg b.i.d., washout, 2 weeks post 800 mg bid, read-out: Trough Pk levels ng/ml in plasma): 0.3 ng/mL
Trough Pk levels ng/ml in plasma ([4]; washout, 2 weeks post 800 mg bid): 0.3 +/ ng/ml
Compound: CC[C@H](C)OC(=O)Cc1oc2ccccc2c1C(=O)c1cc(I)c(OCCN(CC)CC)c(I)c1 [budiodarone, (S)-sec-butyl2-(3-(4-(2-(diethylamino)ethoxy)-3,5-diiodobenzoyl)benzofuran-2-yl)acetate]
Average Episode duration ([3]; 200 mg bid for 2 weeks, average of pacemaker downloads on days 8 and 14): 1.7 h
Average Episode duration ([3]; 400 mg bid for 2 weeks): 0.6 h
longest average duration of AFib ([3]; 600 mg b.i.d.): 6 min
Average Episode duration ([3]; 600 mg bid for 2 weeks): 0.1 h
Average Episode duration ([3]; 800 mg bid for 2 weeks): 0.5 h
maximum duration AFib levels ([3]; all dosing levels from 400 mg b.i.d. to 800 mg b.i.d.): less than 45 minutes
Average Episode duration ([3]; two-week washout after 800 mg bid): 2.4
half-life compared with amiodarone [5]: much shorter half-life than amiodarone
effect on QT interval ([5]; while reducing episodes of long-duration AFib): without a significant increase in the QT interval

Reference: patent US12257228B2, “Cardioversion methods using budiodarone” (Xyra, LLC, priority 2023, dated 2025)
